{"source": "ChEMBL document CHEMBL1152405", "about": "“Bis-anthracenyl isoxazolyl amides have enhanced anticancer activity” (Bioorg Med Chem Lett, 2009)", "assay_type_in_all_cases": "functional, cell-based", "key": {"SNB-19 [1]": {"system": "SNB-19", "experiment": "Antitumor activity against human SNB19 cells after 2 hrs", "conditions": "SNB-19, 2 h"}, "SNB-19 [2]": {"system": "SNB-19", "experiment": "Antitumor activity against human SNB19 cells after 48 hrs", "conditions": "SNB-19, 48 h"}, "SNB-19 [3]": {"system": "SNB-19", "experiment": "Antitumor activity against human SNB19 cells after 24 hrs", "conditions": "SNB-19, 24 h"}}, "data": [{"smiles": "Cc1onc(-c2c3ccccc3c(Cl)c3ccccc23)c1C(=O)NCCCN(C)CCCNC(=O)c1c(-c2c3ccccc3c(Cl)c3ccccc23)noc1C", "values": [{"measurement": "IC50", "setting": "SNB-19 [1]", "result": 114, "unit": "µM"}, {"measurement": "IC50", "setting": "SNB-19 [2]", "result": 30.1, "unit": "µM"}, {"measurement": "IC50", "setting": "SNB-19 [3]", "result": 23.9, "unit": "µM"}]}]}
